# In patent US20200163984A1, “USE OF ISOVALERYL SPIRAMYCIN I, II AND/OR III IN MANUFACTURING MEDICAMENT FOR TREATING AND/OR PREVENTING TUMOR, AND MEDICAMENT” (SHENYANG FUYANG PHARMACEUTICAL TECHNOLOGY CO., LTD., priority 2017, published 2020):
# Experiments:
# [1] = test system: transplanted tumor of human esophageal cancer cell TE-1; experiment: TE-1 transplanted tumor in nude mice
# Method: (§1) Then cell concentration was adjusted to 1×10^7/ml with matrigel, then each nude mouse was inoculated subcutaneously with 0.2 ml of cells at its right armpit and recorded as the first day of inoculation. When the tumor grows to be greater than or equal to 100 mm^3, the mice were randomly divided into 11 groups with 6 mice in each group: a model group, a cyclophosphamide group, isovaleryl spiramycin I groups with doses of 25, 50 and 100 mg/kg, isovaleryl spiramycin II groups with doses of 25, 50 and 100 mg/kg, and isovaleryl spiramycin III groups with doses of 25, 50 and 100 mg/kg. Each group was continuously administered intragastrically for 30 days with a dose of 20 ml/kg. The mice were sacrificed the next day after drug withdrawal and the indicators were tested. The long diameter and short diameter of the tumor, and the body weight of each mouse were recorded every 3 days from drug administration to nude mouse sacrifice.
# (§2) The body weight of the nude mice and the long diameter (a) and short diameter (b) of the transplanted tumor were measured every 3 days, and the tumor volume (v), relative tumor volume (RTV) and relative tumor proliferation rate (T/C) are calculated respectively according to the following formulas, wherein V=a×b^2/2; RTV=V/V0 (V0 is the tumor volume before administration, V is the tumor volume before sacrifice), and T/C (%)=treatment group RTV/model control group RTV×100%.
# (§3) Each mouse was weighed and sacrificed. After the tumor was completely stripped off from the body of the mouse, the non-tumor tissues such as blood stains and fat were removed to weigh the tumor and calculate the tumor growth inhibition rate. The average tumor weight of each group of mice is used as an indicator of efficacy. Tumor growth inhibition rate (%)=(1−the average tumor weight of the treatment group/the average tumor weight of the model group)×100%.
# [2] = test system: transplanted tumor of human large cell lung cancer H460 cells; experiment: H460 transplanted tumor in nude mice
# Method: as §1, with “group:” for “group: a model group, a cyclophosphamide group,”
# as §2, §3
# [3] = test system: transplanted tumor of human renal clear cell adenocarcinoma cell 786-O; experiment: 786-O transplanted tumor in nude mice; details: for Tumor Volume (mm3) (d 1): d1
# Method: as §1, with “786-O cells in a logarithmic growth phase were taken and subjected to a trypan blue exclusion experiment showing that the cell viability was more than 95%, then the cells were subjected to trypsinization, centrifugation, and supernatant removal. Then” for “Then”
# as §2, §3
# [4] = test system: transplanted tumor of human pancreatic cancer cell PANC-1; experiment: PANC-1 transplanted tumor in nude mice; details: for Tumor Volume (mm3) (d 1): d1
# Method: as §1, §2, §3
# [5] = TE-1, 12.5 mg/kg (low dose) i.g. 30 days
# [6] = TE-1, 25 mg/kg (medium dose) i.g. 30 days
# [7] = TE-1, 50 mg/kg (high dose) i.g. 30 days
# [8] = H460, 25 mg/kg (low dose) i.g. 30 days
# [9] = H460, 50 mg/kg (medium dose) i.g. 30 days
# [10] = H460, 100 mg/kg (high dose) i.g. 30 days
# [11] = 786-O, high dose (100 mg/kg in method) i.g. 30 days
# [12] = 786-O, low dose (25 mg/kg in method) i.g. 30 days
# [13] = 786-O, medium dose (50 mg/kg in method) i.g. 30 days
# [14] = PANC-1, 12.5 mg/kg (low dose) i.g. 30 days
# [15] = PANC-1, 25 mg/kg (medium dose) i.g. 30 days
# [16] = PANC-1, 50 mg/kg (high dose) i.g. 30 days
compound,measurement,setting,value
"CCC(=O)O[C@@H]1CC(=O)O[C@H](C)C/C=C/C=C/[C@H](O[C@H]2CC[C@H](N(C)C)[C@@H](C)O2)[C@H](C)C[C@H](CC=O)[C@H](O[C@@H]2O[C@H](C)[C@@H](O[C@H]3C[C@@](C)(O)[C@@H](OC(=O)CC(C)C)[C@H](C)O3)[C@H](N(C)C)[C@H]2O)[C@H]1OC [Isovaleryl spiramycin III, isovaleryl spiramycin III]",Inhibition Rate (tumor growth inhibition rate),[1]; [5],22.64%
same,Relative Tumor Proliferation Rate (T/C),[1]; [5],66.52%
same,Relative Tumor Volume (RTV),[1]; [5],6.03 ± 5.27
same,Tumor Volume (d 1),[1]; [5],173.45 ± 63.55 mm3
same,Tumor Volume (d 30),[1]; [5],1254.78 ± 637.73 mm3
same,Tumor Weight,[1]; [5],1.21 ± 0.53 g
same,Inhibition Rate (tumor growth inhibition rate),[1]; [6],40.17%
same,Relative Tumor Proliferation Rate (T/C),[1]; [6],50.71%
same,Relative Tumor Volume (RTV),[1]; [6],5.02 ± 6.81
same,Tumor Volume (d 1),[1]; [6],206.72 ± 79.72 mm3
same,Tumor Volume (d 30),[1]; [6],1140.10 ± 819.08 mm3
same,Tumor Weight,[1]; [6],0.94 ± 0.39 g
same,Inhibition Rate (tumor growth inhibition rate),[1]; [7],65.46%
same,Relative Tumor Proliferation Rate (T/C),[1]; [7],30.72%
same,Relative Tumor Volume (RTV),[1]; [7],3.60 ± 1.29
same,Tumor Volume (d 1),[1]; [7],331.09 ± 208.02 mm3
same,Tumor Volume (d 30),[1]; [7],1106.23 ± 865.11 mm3
same,Tumor Weight,[1]; [7],0.54 ± 0.22 g
same,tumor volume and relative tumor volume compared with the model group,"[1]; TE-1, low, medium and high doses, P<0.05",significantly lower
same,mouse weight compared with the model group,"[1]; mouse, in vivo",no significant changes
same,Inhibition Rate (tumor growth inhibition rate),[2]; [8],17.41%
same,Relative Tumor Proliferation Rate (T/C),[2]; [8],63.03%
same,Relative Tumor Volume (RTV),[2]; [8],6.62 ± 2.34
same,Tumor Volume (d 1),[2]; [8],140.44 ± 14.04 mm3
same,Tumor Volume (d 30),[2]; [8],914.05 ± 279.14 mm3
same,Tumor Weight,[2]; [8],1.42 ± 0.26 g
same,Inhibition Rate (tumor growth inhibition rate),[2]; [9],23.31%
same,Relative Tumor Proliferation Rate (T/C),[2]; [9],42.54%
same,Relative Tumor Volume (RTV),[2]; [9],4.47 ± 0.94
same,Tumor Volume (d 1),[2]; [9],148.59 ± 14.47 mm3
same,Tumor Volume (d 30),[2]; [9],666.74 ± 160.61 mm3
same,Tumor Weight,[2]; [9],1.32 ± 0.25 g
same,Inhibition Rate (tumor growth inhibition rate),[2]; [10],63.93%
same,Relative Tumor Proliferation Rate (T/C),[2]; [10],35.95%
same,Relative Tumor Volume (RTV),[2]; [10],3.78 ± 0.84
same,Tumor Volume (d 1),[2]; [10],143.19 ± 17.40 mm3
same,Tumor Volume (d 30),[2]; [10],531.56 ± 78.33 mm3
same,Tumor Weight,[2]; [10],0.62 ± 0.26 g
same,tumor volume and relative tumor volume compared with the model group,"[2]; H460, low, medium and high doses, P<0.05",significantly lower
same,mouse weight compared with the model group,"[2]; mouse, in vivo",no significant changes
same,Inhibition Rate (%),"[3]; 786-O nude mice, 25 mg/kg",35.80%
same,Relative Tumor Proliferation Rate (T/C),"[3]; 786-O nude mice, 25 mg/kg",73.13%
same,Relative Tumor Volume (RTV),"[3]; 786-O nude mice, 25 mg/kg",18.90 ± 3.60
same,Tumor Weight,"[3]; 786-O nude mice, 25 mg/kg",1.38 ± 0.42 g
same,Tumor Volume (mm3) (d 1),"[3]; 786-O nude mice, 25 mg/kg",106.47 ± 6.86 mm3
same,Tumor Volume (mm3) (d30),"[3]; 786-O nude mice, 25 mg/kg",1479.90 ± 458.97 mm3
same,Inhibition Rate (%),"[3]; 786-O nude mice, 50 mg/kg",52.14%
same,Relative Tumor Proliferation Rate (T/C),"[3]; 786-O nude mice, 50 mg/kg",51.33%
same,Relative Tumor Volume (RTV),"[3]; 786-O nude mice, 50 mg/kg",9.76 ± 1.44
same,Tumor Weight,"[3]; 786-O nude mice, 50 mg/kg",1.02 ± 0.27 g
same,Tumor Volume (mm3) (d 1),"[3]; 786-O nude mice, 50 mg/kg",96.82 ± 8.52 mm3
same,Tumor Volume (mm3) (d30),"[3]; 786-O nude mice, 50 mg/kg",944.60 ± 112.60 mm3
same,Inhibition Rate (%),"[3]; 786-O nude mice, 100 mg/kg",62.49%
same,Relative Tumor Proliferation Rate (T/C),"[3]; 786-O nude mice, 100 mg/kg",34.20%
same,Relative Tumor Volume (RTV),"[3]; 786-O nude mice, 100 mg/kg",6.18 ± 0.61
same,Tumor Weight,"[3]; 786-O nude mice, 100 mg/kg",0.80 ± 0.05 g
same,Tumor Volume (mm3) (d 1),"[3]; 786-O nude mice, 100 mg/kg",103.26 ± 9.71 mm3
same,Tumor Volume (mm3) (d30),"[3]; 786-O nude mice, 100 mg/kg",635.26 ± 78.22 mm3
same,Relative Tumor Proliferation Rate (T/C),[3]; [11],34.20%
same,tumor growth inhibition rate,[3]; [11],62.49%
same,Relative Tumor Proliferation Rate (T/C),[3]; [12],73.13%
same,tumor growth inhibition rate,[3]; [12],35.80%
same,tumor volume and relative tumor volume compared with the model group,"[3]; 786-O, low, medium and high doses, P<0.05",significantly lower
same,Relative Tumor Proliferation Rate (T/C),[3]; [13],51.33%
same,tumor growth inhibition rate,[3]; [13],52.14%
same,mouse weight compared with the model group,"[3]; mouse, in vivo",no significant changes
same,Body Weight (g) (d1),"[3]; mouse, in vivo, 25 mg/kg",22.72 ± 0.78 g
same,Body Weight (g) (d30),"[3]; mouse, in vivo, 25 mg/kg",23.85 ± 0.89 g
same,Body Weight (g) (d1),"[3]; mouse, in vivo, 50 mg/kg",21.43 ± 1.08 g
same,Body Weight (g) (d30),"[3]; mouse, in vivo, 50 mg/kg",22.33 ± 1.09 g
same,Body Weight (g) (d1),"[3]; mouse, in vivo, 100 mg/kg",22.28 ± 1.72 g
same,Body Weight (g) (d30),"[3]; mouse, in vivo, 100 mg/kg",23.43 ± 1.69 g
same,Inhibition Rate (tumor growth inhibition rate),[4]; [14],26.75%
same,Tumor Weight,[4]; [14],1.99 ± 0.81 g
same,Inhibition Rate (tumor growth inhibition rate),[4]; [15],39.09%
same,Tumor Weight,[4]; [15],1.66 ± 0.66 g
same,Inhibition Rate (tumor growth inhibition rate),"[4]; PANC-1, 25 mg/kg (medium dose) i.g. 30 days, listed as isovaleryl spiramycin III",39.08%
same,Inhibition Rate (tumor growth inhibition rate),[4]; [16],61.78%
same,Tumor Weight,[4]; [16],1.03 ± 0.54 g
same,Relative Tumor Proliferation Rate (T/C),"[4]; PANC-1, high dose i.g. 30 days",34.91%
same,Relative Tumor Proliferation Rate (T/C),"[4]; PANC-1, low dose i.g. 30 days",75.03%
same,tumor volume and relative tumor volume compared with the model group,"[4]; PANC-1, low, medium and high doses, P<0.05",significantly lower
same,Relative Tumor Proliferation Rate (T/C),"[4]; PANC-1, medium dose i.g. 30 days",54.92%
same,Relative Tumor Proliferation Rate (T/C),"[4]; PANC-1 nude mice, 12.5 mg/kg",75.03%
same,Relative Tumor Volume (RTV),"[4]; PANC-1 nude mice, 12.5 mg/kg",13.13 ± 3.15
same,Tumor Volume (mm3) (d 1),"[4]; PANC-1 nude mice, 12.5 mg/kg",137.99 ± 20.99 mm3
same,Tumor Volume (mm3) (d30),"[4]; PANC-1 nude mice, 12.5 mg/kg",1758.49 ± 129.06 mm3
same,Relative Tumor Proliferation Rate (T/C),"[4]; PANC-1 nude mice, 25 mg/kg",54.92%
same,Relative Tumor Volume (RTV),"[4]; PANC-1 nude mice, 25 mg/kg",9.61 ± 1.66
same,Tumor Volume (mm3) (d 1),"[4]; PANC-1 nude mice, 25 mg/kg",109.95 ± 13.42 mm3
same,Tumor Volume (mm3) (d30),"[4]; PANC-1 nude mice, 25 mg/kg",1043.33 ± 113.01 mm3
same,Relative Tumor Proliferation Rate (T/C),"[4]; PANC-1 nude mice, 50 mg/kg",34.90%
same,Relative Tumor Volume (RTV),"[4]; PANC-1 nude mice, 50 mg/kg",5.17 ± 0.64
same,Tumor Volume (mm3) (d 1),"[4]; PANC-1 nude mice, 50 mg/kg",113.14 ± 9.02 mm3
same,Tumor Volume (mm3) (d30),"[4]; PANC-1 nude mice, 50 mg/kg",684.21 ± 115.00 mm3
same,mouse weight compared with the model group,"[4]; mouse, in vivo",no significant changes
